Assay [1] has as its target T1, HSV-1 helicase-primase (UL5(K103A) helicase-primase holoenzyme) (Human herpesvirus 1, UniProt P10189+P10236, K103A).
T1 construct: made in house; host or cells: recombinant baculovirus expression (insect cells, by own knowledge of the cited Dodson 1989 and Dracheva 1995 methods)
The assay can be described thus: HSV-1 Helicase-primase DNA Primase Assay (incorporation of [3H]GTP into primers). It counts as biochemical. The text has this:
i) HSV-1 Helicase-primase DNA Primase Assay
The HSV-1 helicase-primase enzyme used for primase assays was expressed and isolated as described (M. S. Dodson et al., J. Biol. Chem. 1989, 264, 20835; S. Dracheva et al. J. Biol. Chem. 1995, 270, 14148) except that the UL5-expressing baculovirus was changed to express UL5(K103A). The resulting altered enzyme contained no detectable helicase, DNA-dependent ATPase, or ATPase activity. However, DNA primase activity was increased over the wild type enzyme.
Assay: DNA primase activity was measured by the incorporation of [^3 H]GTP into newly synthesized primers by the UL5(K103A) helicase-primase holoenzyme. Assays were performed using as template the 50-mer single-stranded DNA oligonucleotide 5'-CTTCTTCGGT TCCGACTAC CCCTCCCGACTGCCTATGATGTTTATCCTTT G-3'OH (SEQ ID No. 1) derived from the preferred priming site on .phi.X174 single-stranded DNA [D. J. Teney et al., J. Biol. Chem. 1995, 270, 9129-9136]. The reaction mixtures (60 μl) contained […] pH 8.0, 5 mM magnesium chloride, 1 mM DTT, 0.01 % CHAPS, 100 μM each of ATP, GTP, CTP, 10 μM [biotin]UTP, 1 μCi [^3 H]GTP (specific activity 30.8 Ci/mmol), 1 μg of the 50-mer template and 45 μg/ml of the UL5(K103A)-altered helicase-primaseholoenzyme. The samples were incubated at 34° for 45 min in a circulating waterbath and reactions were quenched by the addition of 20 μl 0.5 M EDTA pH 8. Then, 50 μl of the reaction mixtures were transferred to Millipore filtration plates (MHVB N45, 0.45 μm) containing 40 μl of immobilized avidin beads (Pierce). After incubating 30 min at room temperature on a microplate shaker, the wells were washed five times with 300 μl wash buffer (50 mM 4-(2-hydroxyethyl)-1-piperazineethanesulfonic acid (HEPES) pH 7.5 and 0.5 M NaCl) and the filter plates were aspirated to dryness. The radioactivity in each well was counted using the Topcount® after adding 100 μl Microscint® 20 (Camberra-Packard Canada, Mississauga, Ontario, Canada) to each well.
In all cases, compounds were tested in three-fold serial dilutions and the results were expressed as percent inhibition as compared to control reactions without inhibitor. IC50 (i.e., inhibitor concentration that yielded 50% inhibition of enzyme activity) values were determined from dose-response curves using SAS software (SAS Institute, Cary, N.C., USA). A non-linear regression analysis based on the Hill equation, M. Dixon and E.C. Webb Enzymes, Academic Press: New York, N.Y., USA, 1979, was applied to the percent inhibition-concentration data.
(§1) Results for assay i are expressed under the heading HSV-1, IC50 (μM). Results for assay ii are expressed under the heading HSV-1, EC50 (μM).

In assay [2] the test system is HSV-1. The experiment in a line: Inhibition of Herpes Simplex Virus (HSV-1) Replication in Cell Culture (ELISA of glycoprotein C). The class given is cell-based, HSV-1 strain F or KOS. Conditions: Human alphaherpesvirus 1; viral replication in BHK-21 cells, MOI 0.05 PFU/cell, 24 h, 37°. Here is the method: ii) Inhibition of Herpes Simplex Virus (HSV-1) Replication in Cell Culture
Assay: BHK-21 cells clone 13 (ATCC CCL10) were incubated for two days in 850 cm^2 roller bottles (2×10^7 cells/bottle) with α-MEM medium (Gibco Canada Inc., Burlington, Ontario, Canada) supplemented with 8% (v/v) fetal bovine serum (FBS, Gibco Canada, Inc.). The cells were trypsinized and then 3,000 cells in 100 μL of fresh medium were transferred into each well of a 96-well microtiter plate. The cells were incubated at 37° for a period of 3 days to reach a density of 50,000 cells per well. The cells were washed twice with 100 μL of α-MEM supplemented with 2% heat inactivated FBS and incubated for 1-2 h in 100 μL of the same medium.
Thereafter, the cells were infected with HSV-1 strain F or KOS (multiplicity of infection=0.05 PFU/cell) in 50 μL of α-MEM supplemented with 2% heat inactivated FBS. Following one hour of virus absorption at 37°, the medium was removed and the cells were washed with α-MEM supplemented with 2% heat inactivated FBS (2×100 μL). The cells were incubated with or without 100 μL of the appropriate concentration of test reagent in α-MEM medium supplemented with 2% heat inactivated FBS. After 24 h of incubation at 37°, the extent of viral replication was determined by an ELISA assay; for instance, the following assay that detects the late glycoprotein C of HSV-1.
Cells were fixed in the microtiter plate with 100 μL of 0.063% glutaraldehyde in phosphate buffered saline for 30 min at room temperature. The microtiter plate was then washed once with casein blocking solution and blocked with 200 μL of the same solution for 1 h at room temperature. Thereafter, 100 μL of mAb C11 recognizing the glycoprotein C of HSV-1 (see E. Trybala et al., Journal of General Virology, 1994, 75, 743) was added to each well for 2 h at room temperature. The plate was washed three times with phosphate buffered saline containing 0.05% polyoxyethylene (20) sorbitan monooleate. The cells were incubated with 100 μL of sheep anti-mouse IgG horseradish peroxidase for 1 h at room temperature in the dark.
The plate was washed three times with 200 μL of the above-noted phosphate buffer saline preparation, and then once with 0.1 M sodium citrate (pH 4.5). Thereafter, 100 μL of orthophenylenediamine dihydrochloride (OPD, Gibco, Canada Inc.) was added to each well. The plate was agitated on a microplate shaker for 30 min in the dark. Color development was monitored at 450 nm using a microplate spectrophotometer.
SAS was used to calculate % inhibition of viral replication and to generate EC50 values.
as §1

T1 sequence (P10189 whole entry, looked up, stated change not applied): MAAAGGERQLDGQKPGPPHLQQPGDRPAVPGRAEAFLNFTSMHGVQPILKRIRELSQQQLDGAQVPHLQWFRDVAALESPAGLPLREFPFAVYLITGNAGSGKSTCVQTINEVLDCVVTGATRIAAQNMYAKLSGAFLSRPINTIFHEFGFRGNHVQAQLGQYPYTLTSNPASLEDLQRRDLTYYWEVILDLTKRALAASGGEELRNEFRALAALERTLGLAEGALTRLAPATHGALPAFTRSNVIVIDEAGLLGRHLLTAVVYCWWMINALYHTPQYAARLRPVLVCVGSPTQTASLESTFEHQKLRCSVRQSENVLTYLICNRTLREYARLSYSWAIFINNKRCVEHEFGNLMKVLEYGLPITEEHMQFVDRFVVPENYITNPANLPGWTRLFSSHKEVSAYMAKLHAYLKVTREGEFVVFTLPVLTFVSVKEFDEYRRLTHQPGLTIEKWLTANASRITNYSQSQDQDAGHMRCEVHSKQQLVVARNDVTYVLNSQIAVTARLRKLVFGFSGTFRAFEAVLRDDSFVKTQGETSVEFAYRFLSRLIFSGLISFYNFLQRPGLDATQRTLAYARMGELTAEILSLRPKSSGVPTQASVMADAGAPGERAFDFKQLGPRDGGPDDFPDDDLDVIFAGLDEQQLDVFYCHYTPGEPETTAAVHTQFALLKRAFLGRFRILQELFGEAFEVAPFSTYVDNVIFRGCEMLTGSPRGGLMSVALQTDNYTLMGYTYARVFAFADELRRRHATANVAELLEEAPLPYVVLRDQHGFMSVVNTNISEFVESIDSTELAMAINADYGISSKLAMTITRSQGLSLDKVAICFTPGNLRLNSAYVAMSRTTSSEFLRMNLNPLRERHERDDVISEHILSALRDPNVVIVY
T1 sequence (P10192 whole entry, stated change not applied, further chain): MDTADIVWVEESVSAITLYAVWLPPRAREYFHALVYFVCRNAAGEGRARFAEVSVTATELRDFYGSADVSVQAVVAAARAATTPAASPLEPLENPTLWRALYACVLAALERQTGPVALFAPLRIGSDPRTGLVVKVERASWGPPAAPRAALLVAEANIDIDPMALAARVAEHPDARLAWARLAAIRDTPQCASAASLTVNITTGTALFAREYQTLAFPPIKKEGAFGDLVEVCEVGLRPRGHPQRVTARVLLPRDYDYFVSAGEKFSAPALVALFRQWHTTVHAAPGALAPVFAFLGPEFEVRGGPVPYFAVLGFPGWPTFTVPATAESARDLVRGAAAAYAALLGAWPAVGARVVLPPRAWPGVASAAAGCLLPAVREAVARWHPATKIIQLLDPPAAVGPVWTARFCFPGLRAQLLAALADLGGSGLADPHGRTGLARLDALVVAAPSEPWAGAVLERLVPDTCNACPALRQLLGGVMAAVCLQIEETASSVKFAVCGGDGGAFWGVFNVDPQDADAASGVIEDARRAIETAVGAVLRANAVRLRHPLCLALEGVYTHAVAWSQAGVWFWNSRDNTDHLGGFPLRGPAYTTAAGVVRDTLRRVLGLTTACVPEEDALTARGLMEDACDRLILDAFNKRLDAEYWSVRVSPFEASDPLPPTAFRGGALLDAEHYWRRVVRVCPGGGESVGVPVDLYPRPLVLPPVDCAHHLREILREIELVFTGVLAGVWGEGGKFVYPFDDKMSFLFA
T1 sequence (P10236 whole entry, stated change not applied): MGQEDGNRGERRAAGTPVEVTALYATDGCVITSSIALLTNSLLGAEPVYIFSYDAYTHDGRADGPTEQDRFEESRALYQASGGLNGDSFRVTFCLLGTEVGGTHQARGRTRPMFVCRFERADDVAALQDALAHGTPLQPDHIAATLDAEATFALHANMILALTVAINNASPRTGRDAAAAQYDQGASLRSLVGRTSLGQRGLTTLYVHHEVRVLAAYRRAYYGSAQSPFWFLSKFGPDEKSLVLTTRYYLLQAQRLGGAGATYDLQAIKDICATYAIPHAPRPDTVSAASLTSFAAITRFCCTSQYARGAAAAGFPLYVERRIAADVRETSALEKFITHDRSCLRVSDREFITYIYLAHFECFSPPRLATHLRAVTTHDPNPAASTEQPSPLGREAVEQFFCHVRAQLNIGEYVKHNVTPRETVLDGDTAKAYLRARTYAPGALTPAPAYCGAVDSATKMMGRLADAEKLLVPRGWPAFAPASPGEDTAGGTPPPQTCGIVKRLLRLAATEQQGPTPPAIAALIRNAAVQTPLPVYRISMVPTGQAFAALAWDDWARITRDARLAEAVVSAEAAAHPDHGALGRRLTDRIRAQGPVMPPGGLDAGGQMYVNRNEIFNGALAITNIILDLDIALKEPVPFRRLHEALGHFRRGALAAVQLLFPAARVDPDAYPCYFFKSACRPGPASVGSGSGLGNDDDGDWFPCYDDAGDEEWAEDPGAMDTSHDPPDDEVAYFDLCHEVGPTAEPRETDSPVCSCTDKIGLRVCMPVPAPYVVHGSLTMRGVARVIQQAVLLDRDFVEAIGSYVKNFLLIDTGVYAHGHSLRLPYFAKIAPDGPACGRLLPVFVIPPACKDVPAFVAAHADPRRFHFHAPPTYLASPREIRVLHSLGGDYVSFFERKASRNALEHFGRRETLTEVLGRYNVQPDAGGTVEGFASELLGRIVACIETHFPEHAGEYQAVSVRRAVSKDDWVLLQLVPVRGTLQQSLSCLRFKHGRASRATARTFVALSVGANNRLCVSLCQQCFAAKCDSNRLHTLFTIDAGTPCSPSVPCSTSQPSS

Consider `CCCCC(C(=O)OCC)C(=O)c1cccc(NC(=O)c2ccc(Cl)cc2O)c1` (stereo not drawn) [Entry 1, Ethyl α-butyl-3-{(4chloro2-hydroxybenzoyl)amino}-β-oxobenzenepropanoate], for which the IC50 in assay [1] fell in the range of 1000 to 100000 nM. This compound returned an EC50 in assay [2] of 1000 to 100000 nM. Regarding `CC(=O)c1cccc(NC(=O)c2ccc(Cl)cc2O)c1` [Entry 2], the half-inhibitory concentration (IC50) in assay [1] fell in the range of 1000 to 100000 nM. Moreover, the EC50 in assay [2] was in the range of 1000 to 100000 nM. Regarding `CCOC(=O)CC(=O)c1cccc(NC(=O)c2ccc(Cl)cc2O)c1` [Entry 3], in assay [1], the concentration for half-maximal inhibition (IC50) is 1000 to 100000 nM. Besides, the concentration for a half-maximal effect (EC50) in assay [2] was in the range of 1000 to 100000 nM.

On to `CCCC(=O)c1cccc(NC(=O)c2ccc(Cl)cc2O)c1` [Entry 4], for which the concentration for half-maximal inhibition (IC50) in assay [1] was 1000 to 100000 nM. For the same compound, the concentration giving a half-maximal response (EC50) in assay [2] was in the range of 1000 to 100000 nM. For the compound `O=C(Cc1ccccc1)c1cccc(NC(=O)c2ccc(Cl)cc2O)c1` [Entry 5], in assay [1], the IC50 was 1000 to 100000 nM. In assay [2], this compound came in with an EC50 of 1000 to 100000 nM. In assay [1], `O=C(Nc1cccc(C(=O)C2CCCCC2)c1)c1ccc(Cl)cc1O` [Entry 6] gave an IC50 of 1000 to 100000 nM. In assay [2], this compound had a half-maximal effective concentration (EC50) of 1000 to 100000 nM.

In assay [1], `O=C(CCc1ccccc1)c1cccc(NC(=O)c2ccc(Cl)cc2O)c1` [Entry 7] yielded a half-maximal inhibitory concentration (IC50) of 1000 to 100000 nM. In turn, `O=C(OCc1ccccn1)c1cccc(NC(=O)c2ccc(Cl)cc2O)c1` [Entry 8] came in with an IC50 in assay [1] of less than 1000 nM. The EC50 in assay [2] is 1000 to 100000 nM. Compound `O=C(OCc1ccccc1)c1cccc(NC(=O)c2ccc(Cl)cc2O)c1` [Entry 9] gave a half-inhibitory concentration (IC50) in assay [1] of less than 1000 nM. As to `O=C(Nc1cccc(C(=O)N2CCCCC2)c1)c1ccc(Cl)cc1O` [Entry 10], the IC50 in assay [1] is greater than 100000 nM. For the same compound, the EC50 in assay [2] is less than 1000 nM.

Consider `CN(CCc1ccccn1)C(=O)c1cccc(NC(=O)c2ccc(Cl)cc2O)c1` [Entry 11], for which the IC50 in assay [1] is greater than 100000 nM. As for `CCCCN(C)C(=O)c1cccc(NC(=O)c2ccc(Cl)cc2O)c1` [Entry 12, N-Butyl-N-methyl-3-{(4-chloro-2-hydroxybenzoyl)amino)benzamide], the IC50 in assay [1] was greater than 100000 nM. This compound also showed an EC50 in assay [2] of less than 1000 nM.

As to `O=C(NCC1CCCCC1)c1cccc(NC(=O)c2ccc(Cl)cc2O)c1` [Entry 13], the half-maximal inhibitory concentration (IC50) in assay [1] was less than 1000 nM. Further, in assay [2], the EC50 fell in the range of 1000 to 100000 nM. `O=C(NCCc1ccccn1)c1cccc(NC(=O)c2ccc(Cl)cc2O)c1` [Entry 14] displayed an IC50 in assay [1] of 1000 to 100000 nM. The EC50 in assay [2] was 1000 to 100000 nM. The compound `O=C(NCc1ccccc1)c1cccc(NC(=O)c2ccc(Cl)cc2O)c1` [Entry 15] came in with an IC50 in assay [1] of less than 1000 nM. For the same compound, the EC50 in assay [2] fell in the range of 1000 to 100000 nM. Taken in the same sequence, the figures for `CCCCNC(=O)c1cccc(NC(=O)c2ccc(Cl)cc2O)c1` [Entry 16] were 1000 to 100000 nM and 1000 to 100000 nM. For the compound `O=C(NCc1ccccn1)c1cccc(NC(=O)c2ccc(Cl)cc2O)c1` [Entry 17], the 50% inhibitory concentration (IC50) in assay [1] was less than 1000 nM. Moreover, in assay [2], the 50% effective concentration (EC50) is 1000 to 100000 nM. Take `O=C(NC1CCCCC1)c1cccc(NC(=O)c2ccc(Cl)cc2O)c1` [Entry 18]: in assay [1], the 50% inhibitory concentration (IC50) was in the range of 1000 to 100000 nM. Besides, the EC50 in assay [2] is less than 1000 nM. In assay [1], `O=C(NCc1ccncc1)c1cccc(NC(=O)c2ccc(Cl)cc2O)c1` [Entry 19] displayed an IC50 of 1000 to 100000 nM.

On to `CCCCCC(=O)c1cccc(NC(=O)c2cccc(Cl)c2O)c1` [Entry 101], for which, in assay [1], the half-maximal inhibitory concentration (IC50) lay within 1000 to 100000 nM. The same compound displayed a concentration giving a half-maximal response (EC50) in assay [2] of 1000 to 100000 nM.

`Cc1ccc(C(=O)Nc2cccc(C(=O)NCc3ccccc3)c2)c(O)c1` [Entry 102] yielded a half-inhibitory concentration (IC50) in assay [1] of less than 1000 nM. In turn, `COc1ccc(C(=O)Nc2cccc(C(=O)NCc3ccccc3)c2)c(O)c1` [Entry 103] came in with an IC50 in assay [1] of less than 1000 nM. The same measure, in the same setting: as for `[N-]=[N+]=Nc1ccc(C(=O)Nc2cccc(C(=O)NCc3ccccc3)c2)c(O)c1` [Entry 104], the figure is less than 1000 nM; as for `Nc1ccccc1C(=O)Nc1cccc(C(=O)NCc2ccccc2)c1` [Entry 105], greater than 100000 nM; as for `[N-]=[N+]=Nc1cc(O)c(C(=O)Nc2cccc(C(=O)NCc3ccccc3)c2)cc1I` [Entry 106], less than 1000 nM. The same measure, in the same setting: as for `Nc1cc(Cl)ccc1C(=O)Nc1cccc(C(=O)NCc2ccccc2)c1` [Entry 107], the figure is greater than 100000 nM. For the compound `Nc1ccc(C(=O)Nc2cccc(C(=O)NCc3ccccc3)c2)c(O)c1` [Entry 108], in assay [1], the concentration for half-maximal inhibition (IC50) lay in the range of 1000 to 100000 nM.

(Values after patent US6323202A, “HSV primase inhibitors” (Boehringer Ingelheim (Canada) Ltd., priority 2000, dated 2001).)
